Laboratory results from US6069172A, “(R)-2-(3-benzoylphenyl) propionic acid salts and pharmaceutical preparations containing them” (priority 1998, dated 2000).
Counter-ions that a name gives are not always drawn. Like-named read-outs stand apart in the source and are kept apart here.

Experiments:
neutrophil = settings: Ca^++ ionophore and FLMP; cited from earlier work
PMN neutrophils = settings: FLMP-stimulated vs other agonist-stimulated; cited from earlier work
Neutrophils = settings: 10^-6 M, 10 min 37° C; FIG. 2, ** p<0.01
From the text: Results are expressed as the mean ±SD from 3 separated trials (** p<0.01 against each group).

human PMN neutrophils [1] = assay: [Ca^++ ]i increase induced by FMLP in human PMN neutrophils; type: cell-based; settings: FLMP 10^-7 M; % of basal (100%); no treatment 208 ± 7
From the text: (§1) Results are expressed as percent of the basal value of [Ca^++ ]i and are the mean from the values of all responsive cells. Standard error of the mean (SEM) and number of replications (n, in brackets) are also reported.

hyperalgesia = assay: animal or person; settings: for inhibitory effect on hyperalgesia: 25 to 750 mmoles/kg
From the text: In order to predict the therapeutic effect of the racemates in men, it is necessary to know how much the single enantiomers contribute to the global activity, using experimental models excluding metabolic bio-conversion. […] This model allows the contemporary evaluation of the inhibition of oedema formation and of hyperalgesia.

human PMN leukocytes = assay: [Ca^++ ]i increase induced by IL-8 in human PMN leukocytes; type: cell-based; settings: IL-8 50 ng/ml, % of basal [Ca^++ ]i (basal 100%), no drug 302 ± 11
Method: The results reported in Table 1 are cumulative data obtained from 8 trials (8 donors who gave their explicit consent, 3 to 7 cells per specimen). […] The responses, expressed as percent of basal value of [Ca^++ ]i, are the mean from all responsive cells; standard error of the mean (±SEM) and number of replications (in brackets) are also reported. […] IL-8 concentration was 50 ng/ml.

oedema formation [2] = settings: for inhibition of oedema formation: 25 to 750 mmoles/kg
oedema formation [3] = assay: animal or person; settings: Cavia porcellus, read-out: dose from which oedema inhibition is statistically significant
[4] = system: Ca^++ channels, human PMN neutrophils; assay: competition study with lanthanum ions: [Ca^++ ]i increase induced by IL-8, role of Ca^++ channels; type: cell-based; settings: ketoprofen L-lysine salt 10^-8 M; La^+++ 10 μM; IL-8 50 ng/ml; % of basal (100%)
Method: Results reported in Table 2 are the cumulative values from 3 trials (3 donors, 3-7 cells per specimen). […] Responses are expressed as percent of basal [Ca^++ ]i value and are the mean from the values of all responsive cells. Standard error of the mean (SEM) and number of replications (in brackets) are also reported. […] The concentration of ketoprofen L-lysine salt was 10^-8 M, that of La^+++ 10 μM, and that of IL-8 50 ng/ml.

[5] = system: mouse peritoneal macrophages; assay: lipopolysaccharide-stimulated TNF-a release from mouse peritoneal macrophages; type: cell-based; settings: LPS-stimulated; 10^-9 -10^-5 M
human PMN neutrophils [6] = assay: [Ca^++ ]i increase induced by C5a in human PMN neutrophils; type: cell-based; settings: for C5a [Ca^++ ]i (% ± SEM): C5a 10^-8 M, % of basal (100%), no treatment 198 ± 10; for percent of non responsive cells: C5a stimulation and treatment with the L-lysine salts
From the text: as §1

human PMN neutrophils [7] = assay: IL-8-stimulated human PMN neutrophil degranulation (elastase release), FIG. 1; type: cell-based; settings: IL-8 50 ng/ml, cytoclasin B 10^-5 M, 30 min 37° C; FIG. 1, ** p<0.05 against IL-8
Method: Human PMN neutrophils (10^7 /ml) were stimulated in the presence of cytoclasin B (10^-5 M) by adding IL-8 (50 ng/ml) and incubating them for 30 min at 37° C. La^+++ was added 5 min before IL-8 and the lysine salts of (R)- and (S)-ketoprofen 15 min before IL-8. Degranulation was evaluated based on the amount of elastase released in the cell-free surnatant and is expressed as DOD×10^3 /min.

[8] = system: mouse peritoneal macrophages; assay: lipopolysaccharide-stimulated IL-1b release from mouse peritoneal macrophages; type: cell-based; settings: for minimal effective concentration: Mus musculus, Peritoneal macrophage, read-out: concentration of statistically significant stimulation of IL-1b formation
[9] = gastric ulcer-inducing properties in rats (ulcer score); type: in vivo; settings: rat; for ulcer score: 40 mmoles/kg
From the text: Guinea-pigs are a species naturally resistant to the gastrolesive action of NSAIDs, so that it is not possible to compare the two enantiomers in respect to this parameter in this species, unless using very high doses, having no predictive value. To this purpose, rats are necessarily, again, the chosen species, although the least suitable. […] The differences among the enantiomers and the racemate were statistically significant starting from the dose of […]: at this dose an "ulcer score" of 2 was evaluated for the (R) enantiomer, compared with "ulcer scores" of 3 and 4 for the racemate and the (S) enantiomer, respectively.

[10] = system: carrageenin-induced pleural exudate; PMN cell migration; settings: oral, cited from earlier work; for migration of cells into the pleural cavity: PMN cells vs monocytes, thought in 1975
MCP-1 and IL-8 release = settings: comparative study; cited from earlier work
[11] = system: interleukin IL-8 production; settings: reduced from 53.8 pg/ml, p<0.1, cited from earlier work
[12] = system: ultra-violet radiation-induced epidermal erythema; settings: topic; guinea pigs; cited from earlier work
TXB2 synthesis = TXB2 synthesis inhibition in human blood; type: cell-based; settings: index of platelet antiaggregating properties
human synovial cells = settings: stimulated by interleukin-1 and TNF-a; cited from earlier work
[13] = men, cited from earlier work
[14] = rats; in words; cited from earlier work
pain perception = settings: men; compared with (S) enantiomers; cited from earlier work
[15] = guinea-pigs; cited from earlier work

Structure (SMILES): COC(=O)C1=C(C)NC(C)=C(C(=O)OC)C1c1ccccc1[N+](=O)[O-] [nifedipine]
- inhibition of neutrophil activation / blockade of Ca^++ ion entry (neutrophil): completely inactive

Structure (SMILES): CC(C)C[C@H](NC(=O)OCC1c2ccccc2-c2ccccc21)C(=O)O [NPC-15669, N-Fmoc-L-leucine]
- [Ca^++ ]i increase in PMN neutrophils (PMN neutrophils): inhibited FLMP-stimulated, but not other agonist-stimulated [Ca^++ ]i increase

Structure (SMILES): C[C@@H](C(=O)O)c1cccc(C(=O)c2ccccc2)c1 [(R)-ketoprofen L-lysine salt, (R)-2-(3-benzoylphenyl)propionic acid]
- inhibitory effect on IL-8-stimulated chemotactic migration (Neutrophils): specific inhibitory effects
- FMLP [Ca^++ ]i (% ± SEM) (human PMN neutrophils [1]): 193 ± 6%
- inhibitory effect on hyperalgesia (hyperalgesia): marked, dose-dependent inhibitory effect on hyperalgesia
- doses with marked, dose-dependent inhibition of hyperalgesia (hyperalgesia; maximal at the highest dose): 75 to 250 mmol/kg
- [Ca^++ ]i (% ± SEM) (human PMN leukocytes; drug 10^-6 M): 182 ± 15%
- [Ca^++ ]i (% ± SEM) (human PMN leukocytes; drug 10^-7 M): 193 ± 10%
- [Ca^++ ]i (% ± SEM) (human PMN leukocytes; drug 10^-8 M): 188 ± 8%
- [Ca^++ ]i (% ± SEM) (human PMN leukocytes; drug 10^-9 M): 364 ± 29%
- inhibition of oedema formation (oedema formation [2]): significantly inhibited oedema formation
- minimal effective dose (oedema formation [3]): 250000 µmol/kg
- La^+++ + IL-8 [Ca^++ ]i (% ± SEM) [4]: 176 ± 7%
- effect on TNF-a release [5]: completely ineffective
- C5a [Ca^++ ]i (% ± SEM) (human PMN neutrophils [6]): 153 ± 4%
- percent of non responsive cells (human PMN neutrophils [6]): 50%
- inhibitory effect on human PMN neutrophil degranulation (elastase release) (human PMN neutrophils [7]): specific inhibitory effects
- effect on IL-1b release ([8]; LPS-stimulated, 10^-9 -10^-5 M): completely ineffective
- ulcer score [9]: 2
- ulcer-inducing properties ([9]; compared with (S) enantiomer): less ulcer-inducing properties

Structure (SMILES): C[C@H](C(=O)O)c1cccc(C(=O)c2ccccc2)c1 [(S)-ketoprofen L-lysine salt]
- inhibitory effect on IL-8-stimulated chemotactic migration (Neutrophils): specific inhibitory effects
- FMLP [Ca^++ ]i (% ± SEM) (human PMN neutrophils [1]): 214 ± 13%
- inhibitory effect on hyperalgesia (hyperalgesia): only a slight inhibitory effect on hyperalgesia
- minimal effective dose (hyperalgesia; Cavia porcellus, read-out: dose with statistically significant inhibition of hyperalgesia): 750000 µmol/kg
- [Ca^++ ]i (% ± SEM) (human PMN leukocytes; drug 10^-6 M): 163 ± 18%
- [Ca^++ ]i (% ± SEM) (human PMN leukocytes; drug 10^-7 M): 199 ± 13%
- [Ca^++ ]i (% ± SEM) (human PMN leukocytes; drug 10^-8 M): 183 ± 5%
- [Ca^++ ]i (% ± SEM) (human PMN leukocytes; drug 10^-9 M): 289 ± 19%
- dose of maximal effect on oedema formation (oedema formation [2]; dose range 25 to 750 mmoles/kg): 250 mmol/kg
- minimal effective dose (oedema formation [3]): 75000 µmol/kg
- La^+++ + IL-8 [Ca^++ ]i (% ± SEM) [4]: 166 ± 7%
- C5a [Ca^++ ]i (% ± SEM) (human PMN neutrophils [6]): 150 ± 4%
- percent of non responsive cells (human PMN neutrophils [6]): 50%
- inhibitory effect on human PMN neutrophil degranulation (elastase release) (human PMN neutrophils [7]): specific inhibitory effects
- minimal effective concentration [8]: 10 µM
- ulcer score [9]: 4

Structure (SMILES): O=C(O)c1ccccc1Nc1cccc(C(F)(F)F)c1 [flufenamic acid]
- inhibition of neutrophil activation / blockade of Ca^++ ion entry (neutrophil): inhibition of neutrophil activation

Structure (SMILES): Cc1c(Cl)cccc1Nc1ccccc1C(=O)O [tolfenamic acid]
- inhibition of neutrophil activation / blockade of Ca^++ ion entry (neutrophil): inhibition of neutrophil activation

Structure (SMILES): CC(C(=O)O)c1cccc(C(=O)c2ccccc2)c1 (racemic) [racemic ketoprofen L-lysine salt]
- inhibitory effect on hyperalgesia (hyperalgesia): constantly intermediate between those evaluated for the two enantiomers
- inhibition of oedema formation (oedema formation [2]): constantly intermediate between those evaluated for the two enantiomers
- minimal effective concentration [8]: 10 µM
- ulcer score [9]: 3

Structure (SMILES): CC(C(=O)O)c1ccc(-c2ccccc2)c(F)c1 (racemic) [flurbiprofen, 3-fluoro-4-phenylhydratropic acid]
- migration of cells into the pleural cavity [10]: inhibit the migration of PMN cells, but not that of monocytes
- carrageenin-induced formation of pleural exudate [10]: inhibited

Structure (SMILES): O=C([O-])CC(S)C(=O)[O-].[Na+].[Na+] (stereo not drawn) [sodium thiomalate]
- inhibition of release of MCP-1 and IL-8 (MCP-1 and IL-8 release): in a sub-optimal manner

Structure (SMILES): C[C@@H]1C[C@H]2[C@@H]3CCC4=CC(=O)C=C[C@]4(C)[C@@]3(F)[C@@H](O)C[C@]2(C)[C@@]1(O)C(=O)CO [dexamethasone]
- inhibition of release of MCP-1 and IL-8 (MCP-1 and IL-8 release): in an optimal manner

Structure (SMILES): CC(C(=O)O)c1cccc(C(=O)c2ccccc2)c1 (racemic) [racemic ketoprofen]
- interleukin IL-8 production ([11]; 100 mg/kg): 16.9 pg/mL
- interleukin IL-8 production ([11]; 200 mg/kg): 22.4 pg/mL
- Protection, UV radiation-induced epidermal erythema [12]: 56.1±3.1%
- IC50 (TXB2 synthesis): 420 ± 40 µM

Structure (SMILES): COc1ccc2cc([C@H](C)C(=O)O)ccc2c1 [naproxen]
- IL-8 production in human synovial cells (human synovial cells): not inhibited

Structure (SMILES): CC(C)Cc1ccc([C@@H](C)C(=O)O)cc1 [(R)-ibuprofen, p-isobutylhydratropic acid]
- conversion of (R) into (S) enantiomer ([13]; in words): nearly completely converted
- conversion of (R) into (S) enantiomer [14]: nearly completely converted

Structure (SMILES): CC(C(=O)O)c1ccc(C(=O)c2ccccc2)s1 (stereo not drawn) [thioprofenic acid]
- IL-8 production in human synovial cells (human synovial cells): not inhibited

Structure (SMILES): CC(C(=O)O)c1cccc(Oc2ccccc2)c1 (stereo not drawn) [fenofren]
- migration of cells into the pleural cavity [10]: inhibit the migration of PMN cells, but not that of monocytes
- carrageenin-induced formation of pleural exudate [10]: inhibited

Structure (SMILES): C[C@H](C(=O)O)c1cccc(C(=O)c2ccccc2)c1 [(S)-ketoprofen]
- Protection, UV radiation-induced epidermal erythema [12]: 73.4±4.0%
- IC50 (TXB2 synthesis): 160 ± 40 µM

Structure (SMILES): CN1C(C(=O)Nc2nccs2)=C(O)c2ccccc2S1(=O)=O [sudoxicam]
- migration of cells into the pleural cavity [10]: inhibit the migration of PMN cells, but not that of monocytes
- carrageenin-induced formation of pleural exudate [10]: inhibited

Structure (SMILES): CN(Cc1cnc2nc(N)nc(N)c2n1)c1ccc(C(=O)N[C@@H](CCC(=O)O)C(=O)O)cc1 [metotrexate]
- inhibition of release of MCP-1 and IL-8 (MCP-1 and IL-8 release): in a sub-optimal manner

Structure (SMILES): CN1C(C(=O)Nc2ccccn2)=C(O)c2ccccc2S1(=O)=O [piroxicam]
- IL-8 production in human synovial cells (human synovial cells): not inhibited

Structure (SMILES): C[C@@H](C(=O)O)c1ccc(-c2ccccc2)c(F)c1 [(R)-flurbiprofen, 3-fluoro-4-phenylhydratropic acid]
- conversion of (R) into (S) enantiomer [13]: < 5%
- inhibition of pain perception (pain perception): efficacy at least similar to that of the (S) enantiomers
- conversion of (R) into (S) enantiomer [14]: completely converted
- conversion of (R) into (S) enantiomer [15]: < 5%

Structure (SMILES): COc1ccc2c(c1)c(CC(=O)O)c(C)n2C(=O)c1ccc(Cl)cc1 [indomethacin]
- IL-8 production in human synovial cells (human synovial cells): not inhibited
- migration of cells into the pleural cavity [10]: inhibit the migration of PMN cells, but not that of monocytes
- carrageenin-induced formation of pleural exudate [10]: inhibited
